Measured values from patent US20250041434A1, “CEA ASSAY FOR PATIENT SELECTION IN CANCER THERAPY” (SANOFI, priority 2021, published 2025).

What was measured:
cancer cells = assay: cytotoxic activity of ADC metabolites; format: cell-based; conditions: through binding to tubulin and inhibition of microtubule polymerization
[1] = TED13751 Main dose escalation, maximum tolerated dose; format: in vivo, human; conditions: q2w, IV infusion
Source text: The dose escalation decision will be based on the dose limiting toxicities (DLTs) observed during Cycle 1+Cycle 2 in q2w cycle and during Cycle 1 in q3w cycle, whether related or not to the investigational medicinal product (IMP) in the absence of clear evidence to the contrary after validation by the Study Committee, and if not related to the progression of disease. Before escalating the tusamitamab ravtansine dose to the next level, the safety data, and especially DLTs, ocular and cardiac adverse events (AEs) will be reviewed by the Study Committee. Cumulative toxicities observed on subsequent administrations will also be considered for the dose escalation process and the dose selection decision. […]
For the accelerated dose escalation phase, as well as for the Bayesian EWOC, a minimum of […] duration (˜4 weeks) will be mandatory between the last patient who has received Day 1 of Cycle 1 at DL n, and the first patient who will receive Day 1 of Cycle 1 at DL n+1. The dose determined to be the maximum tolerated dose (MTD) will be tested further in the Expansion cohorts.
The first loading dose tested will be 120 mg/m^2; if this first dose is safe, then dose escalation will proceed to test next 135 mg/m^2, and 150 mg/m^2. […] The determined MTD or safe MAD will be used for CRC-L cohort.

[2] = system: NSQ NSCLC with high CEACAM5 expression; assay: TED13751 clinical study, tumor response (RECIST 1.1) in NSQ NSCLC high CEACAM5 expressers; format: in vivo, human; conditions: for anti-tumor activity, in words: participants heavily pre-treated for NSQ NSCLC, study TED13751
Method: In this cohort of NSQ NSCLC participants with high CEACAM5 expression on tumor (≥2+ in intensity in ≥50%) expansion cohort NSQ NSCLC, 10 out of 13 responding participants had high baseline circulating CEA (≥100 ng/mL).
Expression of CEACAM5 on tumor was assessed using CEACAM5 IHC test and circulating CEA and CEACAM5 assays for patients enrolled in clinical trial TED13751 (NCT02187848).
Circulating CEA was determined locally using the assay which was of routine use in the institution. In vitro diagnostic CEA assays measure CEA not claiming specificity for CEACAM5.
The study will be divided in […] parts: The Escalation Phase and the Expansion Phase.
The expansion phase will be conducted with every 2 weekly dosing schedule. During the Expansion Phase, the population to be treated will be restricted to patients with advanced diseases in colorectal cancer (CRC), NSQ NSCLC, small cell lung cancer (SCLC), and gastric adenocarcinoma (including signet-ring cell carcinoma subtype as well as esophago-gastric junction (EGJ) adenocarcinomas of the Siewert Types II and III). CEACAM5 expression of ≥2+ in intensity involving ≥50% of the tumor cell population will be documented during pre-screening on the most recent archival tissue sample and using local IHC evaluation for patients potentially eligible for study treatment in the gastric adenocarcinoma cohort. There are 2 independent NSQ NSCLC expansion phase cohorts: The first one (Lung cohort) includes patients with high CEACAM5 expression (≥2+ in intensity involving at least 50% of the tumor cell population). The second cohort (Lung bis cohort) will include patients that pre-screened positive at moderate intensity (≥2+ between ≥1% to <50% of the tumor cell population). The SCLC cohort includes patients with CEACAM5 expression of ≥2+ in intensity involving ≥1% of the tumor cell population. […] Full screening will only be done for archival cases meeting the above definition. No CEACAM5 pre-screening is required for CRC patients potentially eligible for the CRC expansion cohort. The level of CEACAM5 expression will be documented essentially retrospectively and centrally on both archival and fresh (baseline sample) tumor tissues. Confirmation of CEACAM5 tumor expression will be done retrospectively in a central laboratory on fresh tumor tissue collected at baseline (mandatory biopsy in the Expansion Phase only, on all patients with CRC and gastric cancer, and on NSQ NSCLC as well as SCLC patients with a lesion amenable to biopsy). If sufficient archived tumor material is available, a central evaluation will also be done retrospectively to gain knowledge on the variability in evaluation of the expression. The results of the retrospective analyses will have no impact on patients' treatment. It will be used for the better interpretation of the overall response, and as the baseline for comparison with CEACAM5 expression upon progression (exploration for loss of CEACAM5 as mechanism of acquired resistance).
In the Expansion cohorts, the assessment of response to tusamitamab ravtansine is a primary objective. All patients treated in the Expansion Phase must have at least one measurable lesion for inclusion. Tumor assessment will be made at least every 4 cycles. Decision to pursue treatment will be based on the response evaluation made by the Investigator, however, measures of lesions will be collected in the electronic case report forms for a determination of response by Sponsor. A partial or complete response must be confirmed on a second examination done at least 4 weeks apart, in order to be documented as a confirmed response to therapy.
The RECIST v1.1 criteria will be followed for assessment of tumor response.

[3] = biological target: T1, A3B3 domain of human CEACAM5 (Homo sapiens, UniProt P06731); assay: domain specificity of binding
T1 sequence (P06731 499-685 limits assumed): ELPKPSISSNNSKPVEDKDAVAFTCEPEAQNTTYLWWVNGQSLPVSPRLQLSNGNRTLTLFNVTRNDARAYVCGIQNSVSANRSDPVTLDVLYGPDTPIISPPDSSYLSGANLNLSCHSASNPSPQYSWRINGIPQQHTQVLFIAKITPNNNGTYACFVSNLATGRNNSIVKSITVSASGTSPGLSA

CEACAM8 = biological target: T2, CEACAM8 (Homo sapiens, UniProt P31997); assay: recognition of other CEACAMs; format: binding
T2 sequence (P31997 35-320): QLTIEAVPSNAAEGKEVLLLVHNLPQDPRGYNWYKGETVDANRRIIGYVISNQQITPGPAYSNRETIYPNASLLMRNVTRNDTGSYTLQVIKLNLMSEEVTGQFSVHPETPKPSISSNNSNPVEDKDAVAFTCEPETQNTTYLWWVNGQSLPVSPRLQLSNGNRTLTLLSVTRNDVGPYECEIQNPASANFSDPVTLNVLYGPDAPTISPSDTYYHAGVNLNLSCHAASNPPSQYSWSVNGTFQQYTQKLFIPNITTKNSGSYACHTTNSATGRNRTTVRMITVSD

CEACAM1 = biological target: T3, CEACAM1 (Homo sapiens, UniProt P13688); assay: recognition of other CEACAMs; format: binding
T3 sequence (P13688 35-526): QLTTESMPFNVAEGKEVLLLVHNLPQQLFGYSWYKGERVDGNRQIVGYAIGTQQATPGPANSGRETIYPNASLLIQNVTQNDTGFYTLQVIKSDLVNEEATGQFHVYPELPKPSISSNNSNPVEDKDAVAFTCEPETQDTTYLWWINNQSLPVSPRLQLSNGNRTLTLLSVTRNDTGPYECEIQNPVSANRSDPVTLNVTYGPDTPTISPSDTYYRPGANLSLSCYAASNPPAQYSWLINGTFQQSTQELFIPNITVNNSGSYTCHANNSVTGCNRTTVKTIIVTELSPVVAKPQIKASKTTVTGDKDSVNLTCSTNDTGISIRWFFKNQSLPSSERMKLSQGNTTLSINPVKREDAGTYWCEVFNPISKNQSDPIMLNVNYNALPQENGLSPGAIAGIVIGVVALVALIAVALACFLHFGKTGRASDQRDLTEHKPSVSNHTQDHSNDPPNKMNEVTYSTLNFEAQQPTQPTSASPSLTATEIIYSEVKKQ

[4] = system: human primary colon and stomach tumors; conditions: mice bearing human primary colon and stomach tumors; see WO 2014/079886; cited from earlier work
CEACAM6 = biological target: T4, CEACAM6 (Homo sapiens, UniProt P40199); assay: recognition of other CEACAMs; format: binding
T4 sequence (P40199 35-320): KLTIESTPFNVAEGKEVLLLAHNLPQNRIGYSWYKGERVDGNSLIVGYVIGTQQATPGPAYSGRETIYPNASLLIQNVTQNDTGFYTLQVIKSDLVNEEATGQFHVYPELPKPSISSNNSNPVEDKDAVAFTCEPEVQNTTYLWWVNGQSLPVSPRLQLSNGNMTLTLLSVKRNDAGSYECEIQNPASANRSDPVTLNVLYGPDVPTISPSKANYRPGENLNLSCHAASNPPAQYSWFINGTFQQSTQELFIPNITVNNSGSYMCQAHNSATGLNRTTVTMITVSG

tumor cells = conditions: see WO 2014/079886; cited from earlier work
[5] = Phase 1/2 study adverse drug reactions; format: in vivo, human; conditions: heavily pre-treated high CEACAM5 expressers for NSCLC
Method: The ADC was analyzed in a Phase 1/2 study in heavily pre-treated high CEACAM5 expressers for NSCLC.

[6] = system: patient-derived CRC xenograft expressing CEACAM5; assay: circulating CEA in mice engrafted orthotopically with patient-derived CRC xenograft; format: in vivo; conditions: single active dose; rise in circulating CEA occurring with tumor growth
Source text: However, specificities linked to the CEACAM5 target would potentially allow a more accurate follow-up of treatment impact on tumor growth by the monitoring CEA levels in the blood. Indeed, measurement of circulating CEA levels is of some use for CRC treatment monitoring. […] Similarly, modulation of circulating CEA may be a useful PDy marker of response to tusamitamab ravtansine. […] The usefulness of monitoring circulating CEA will be explored in this clinical study.

[7] = preliminary experiments on effector activity
CEACAM7 = biological target: T5, CEACAM7 (Homo sapiens, UniProt Q14002); assay: recognition of other CEACAMs; format: binding
T5 sequence (Q14002 36-242): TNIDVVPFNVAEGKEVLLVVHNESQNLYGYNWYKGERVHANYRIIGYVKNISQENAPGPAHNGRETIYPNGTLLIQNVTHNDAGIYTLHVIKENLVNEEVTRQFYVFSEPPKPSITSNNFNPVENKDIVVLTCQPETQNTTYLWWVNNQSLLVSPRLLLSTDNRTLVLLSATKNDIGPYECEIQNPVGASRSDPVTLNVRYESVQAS

cells expressing CEACAM5 = conditions: see WO 2014/079886; cited from earlier work
[8] = system: relevant experimental model; assay: single administration in relevant experimental model; format: in vivo
[9] = Phase 1/2 study, heavily pre-treated high CEACAM5 expressers for NSCLC

Molecule: COc1cc2cc(c1Cl)N(C)C(=O)CC(OC(=O)C(C)N(C)C(=O)CCC(C)(C)S)C1(C)OC1C(C)C1CC(O)(NC(=O)O1)C(OC)/C=C/C=C(\C)C2 (stereo not shown) [DM4, N2′-deacetyl-N-2′(4-methyl-4-mercapto-1-oxopentyl)-maytansine]
- cytotoxic activity (cancer cells): potent cytotoxic activity

Molecule: COc1cc2cc(c1Cl)N(C)C(=O)CC(OC(=O)C(C)N(C)C(=O)CCC(C)(C)SC)C1(C)OC1C(C)C1CC(O)(NC(=O)O1)C(OC)C=CC=C(C)C2 (stereo not shown) [Me-DM4]
- cytotoxic activity (cancer cells): potent cytotoxic activity

Molecule: Tusamitamab ravtansine: immunoconjugate ADC combining humanized anti-CEACAM5 antibody tusamitamab and maytansinoid DM4 via SPDB linker; CAS Registry No. 2254086-60-5
- maximum tolerated dose (MTD) [1]: 100 mg/m^2
- participants who had PR ([2]; 100 mg/m^2 Q2W, 64 participants, RECIST 1.1): 13
- overall response rate ([2]; 100 mg/m^2 Q2W, 64 participants, RECIST 1.1, 95% CI: 12.27% to 31.71%): 20.3%
- Duration of Response (DoR), in words [2, 9]: competitive
- Overall Response Rate (ORR), in words [2, 9]: competitive
- Responses (%) ([2]; baseline circulating CEA <5 μg/L (9 patients), 100 mg/m^2 Q2W): 22.2%
- Responses (%) ([2]; baseline circulating CEA <100 μg/L (37 patients), 100 mg/m^2 Q2W): 8.1%
- Responses (%) ([2]; baseline circulating CEA >3 μg/L (58 patients), 100 mg/m^2 Q2W): 22.4%
- Responses (%) ([2]; baseline circulating CEA ≥5 μg/L (53 patients), 100 mg/m^2 Q2W): 20.8%
- Responses (%) ([2]; baseline circulating CEA ≥100 μg/L (25 patients), 100 mg/m^2 Q2W): 40.0%
- share of the 13 responders with baseline circulating CEA level ≥100 μg/L ([2]; high expressers cohort, 100 mg/m^2 Q2W): 77%
- anti-tumor activity, in words [2]: encouraging anti-tumor activity
- anti-tumor activity, in words ([2]; listed as tusamitamab ravtansine): Encouraging preliminary anti-tumor activity
- binding to A3B3 domain of human CEACAM5 [3]: specifically binds
- recognition of CEACAM8 (CEACAM8): does not recognize
- recognition of CEACAM1 (CEACAM1): does not recognize
- tumor growth inhibition in vivo [4]: markedly inhibit tumor growth
- recognition of CEACAM6 (CEACAM6): does not recognize
- cytotoxic activity on tumor cells in vitro (tumor cells): induce cytotoxic activity
- hematological/nerve toxicity [5]: minimal
- most common Adverse Drug Reactions (ADRs) ([5]; reversible without treatment discontinuation): ocular toxicity
- circulating CEA [6]: prevented a rise in circulating CEA
- effector activity [7]: devoid of effector activity
- recognition of CEACAM7 (CEACAM7): does not recognize
- internalization into cells expressing CEACAM5 after binding (cells expressing CEACAM5): capable of being internalized
- tumor regressions [8]: induces regressions
